Where two headings read alike, the source gives them in different places.
Key:
urease [1] = conditions: for Ammonia emission, % of the urea applied (77 mg N): Filder loam, 20° C., label gives UI/NI fraction of recommended rate
Experimental: Screening trials were conducted to evaluate the effect of DMPSA and NBPT in the inhibition of urease and inhibition of nitrification, and to find suitable quantities for use. Serving for this purpose was a two-factorial trial design including an unfertilized control sample. For the urease inhibitor NBPT and for the nitrification inhibitor DMPSA, in each case 0%, 33%, 66% and 100% of the application rates recommended for the individual compounds when used alone were used (in this example, 0.6 g of NBPT per kg of urea and, respectively, 3.6 g of DMPSA per kg of urea), giving 16 trials (0%-0% to 100%-100%), in addition to the unfertilized control sample.
Urea fertilizer was delivered in an amount of 200 kg nitrogen per ha, corresponding to 0.51 mg of urea nitrogen per g of soil. The soil used was Filder loam with a pH of 6.8. The incubation trials were carried out at 20° C. For the investigation of trace gases, air supply was passed first through a gas sample, then through a 250 ml capacity glass bottle containing 150 g of soil, subsequently through a gas sample for the outgoing air and through an acid trap, in order, for example, to determine amounts of ammonia. For the measurement of nitrogen, about 20 g of soil were incubated; for the measurement of urea, about 5 g of soil.

nitrification [2] = assay: Soil incubation trial: recovery of applied urea N as ammonium; conditions: for percentage recovery in the form of ammonium, % of applied urea (13 mg N): 28 days after application, Filder loam pH 6.8, 20° C., 200 kg urea N/ha, label gives UI/NI fraction of recommended rate (0.6 g NBPT, 3.6 g DMPSA per kg urea)
Experimental: % of applied urea (13 mg N)
A determination was carried out 28 days after application of the urea, with the percentage recovery in the form of ammonium being reported.

nitrification [3] = assay: Soil incubation trial: cumulative laughing gas (N2O-N) emission; conditions: 77 mg N applied; for N2O—N cumulative, % of appl.: cumulative over 28 days
nitrification [4] = assay: Soil incubation trial: nitrate formed from applied urea N; conditions: Filder loam, 20° C., label gives UI/NI fraction of recommended rate
Experimental: % of the urea applied (13 mg N)

urease [5] = assay: Screening trials: hydrolysis of urea in soil; conditions: first few days of application; with DMPSA present

With `CCCCNP(N)(N)=S` [NBPT, N-(n-butyl)thiophosphoric triamide] the “reduction in ammonia emissions” value (urease [1]; 66% NBPT, especially 9 days after application) was “notable and almost complete reduction in ammonia emissions”, the “Ammonia emission, % of the urea applied (77 mg N)” value (from here on “Ammonia emission, %”) (urease [1]; 4 days after application, listed as UI 1 NI 0) was 0.0% and the “Ammonia emission, %” value (urease [1]; 4 days after application, listed as UI ⅓ NI 0) was 0.3%. For the same molecule, the “Ammonia emission, %” value (urease [1]; 4 days after application, listed as UI ⅔ NI 0) was 0.1%, the “Ammonia emission, %” value (urease [1]; 9 days after application, listed as UI 1 NI 0) was 0.0% and the “Ammonia emission, %” value (urease [1]; 9 days after application, listed as UI ⅓ NI 0) was 1.1%. For the same molecule, the “Ammonia emission, %” value (urease [1]; 9 days after application, listed as UI ⅔ NI 0) was 0.2%, the “effect on the increase in ammonia emission caused by the nitrification inhibitor” value (urease [1]; addition of NBPT) was “prevent the increase in ammonia emission” and the “percentage recovery in the form of ammonium, % of applied urea (13 mg N)” value (nitrification [2]; listed as UI 1 NI 0) was 28%. For the same molecule, the “percentage recovery in the form of ammonium, % of applied urea (13 mg N)” value (nitrification [2]; listed as UI ⅓ NI 0) was 9%, the “percentage recovery in the form of ammonium, % of applied urea (13 mg N)” value (nitrification [2]; listed as UI ⅔ NI 0) was 21% and the “supplementary influence on ammonium recovery” value (nitrification [2]; after 28 days) was “no supplementary influence”. The “N2O—N cumulative” value (nitrification [3]; 0 days after appl., 150 g soil) was 0 μg N2O—N Bottle^1, the “N2O—N cumulative” value (nitrification [3]; 0.5 days after appl.) was 0 μg N2O—N Bottle^1 and the “N2O—N cumulative” value (nitrification [3]; 1 day after appl., listed as UI-1_NI-0) was 2 μg N2O—N Bottle^1. For the same molecule, the “N2O—N cumulative” value (nitrification [3]; 1 day after appl., listed as UI-2_NI-0) was 1 μg N2O—N Bottle^1, the “N2O—N cumulative” value (nitrification [3]; 1 day after appl., listed as UI-3_NI-0) was 2 μg N2O—N Bottle^1 and the “N2O—N cumulative” value (nitrification [3]; 2 days after appl., listed as UI-1_NI-0) was 3 μg N2O—N Bottle^1. For the same molecule, the “N2O—N cumulative” value (nitrification [3]; 2 days after appl., listed as UI-2_NI-0) was 2 μg N2O—N Bottle^1, the “N2O—N cumulative” value (nitrification [3]; 2 days after appl., listed as UI-3_NI-0) was 7 μg N2O—N Bottle^1 and the “N2O—N cumulative” value (nitrification [3]; 3 days after appl., listed as UI-1_NI-0) was 4 μg N2O—N Bottle^1. For the same molecule, the “N2O—N cumulative” value (nitrification [3]; 3 days after appl., listed as UI-2_NI-0) was 3 μg N2O—N Bottle^1, the “N2O—N cumulative” value (nitrification [3]; 3 days after appl., listed as UI-3_NI-0) was 10 μg N2O—N Bottle^1 and the “N2O—N cumulative” value (nitrification [3]; 4 days after appl., listed as UI-1_NI-0) was 5 μg N2O—N Bottle^1. The “N2O—N cumulative” value (nitrification [3]; 4 days after appl., listed as UI-2_NI-0) was 3 μg N2O—N Bottle^1, the “N2O—N cumulative” value (nitrification [3]; 4 days after appl., listed as UI-3_NI-0) was 11 μg N2O—N Bottle^1 and the “N2O—N cumulative” value (nitrification [3]; 5 days after appl., listed as UI-1_NI-0) was 7 μg N2O—N Bottle^1. The “N2O—N cumulative” value (nitrification [3]; 5 days after appl., listed as UI-2_NI-0) was 4 μg N2O—N Bottle^1, the “N2O—N cumulative” value (nitrification [3]; 5 days after appl., listed as UI-3_NI-0) was 12 μg N2O—N Bottle^1 and the “N2O—N cumulative” value (nitrification [3]; 6 days after appl., listed as UI-1_NI-0) was 16 μg N2O—N Bottle^1. For the same molecule, the “N2O—N cumulative” value (nitrification [3]; 6 days after appl., listed as UI-2_NI-0) was 8 μg N2O—N Bottle^1, the “N2O—N cumulative” value (nitrification [3]; 6 days after appl., listed as UI-3_NI-0) was 13 μg N2O—N Bottle^1 and the “N2O—N cumulative” value (nitrification [3]; 8 days after appl., listed as UI-1_NI-0) was 32 μg N2O—N Bottle^1. The “N2O—N cumulative” value (nitrification [3]; 8 days after appl., listed as UI-2_NI-0) was 16 μg N2O—N Bottle^1, the “N2O—N cumulative” value (nitrification [3]; 8 days after appl., listed as UI-3_NI-0) was 20 μg N2O—N Bottle^1 and the “N2O—N cumulative” value (nitrification [3]; 10 days after appl., listed as UI-1_NI-0) was 48 μg N2O—N Bottle^1. For the same molecule, the “N2O—N cumulative” value (nitrification [3]; 10 days after appl., listed as UI-2_NI-0) was 36 μg N2O—N Bottle^1, the “N2O—N cumulative” value (nitrification [3]; 10 days after appl., listed as UI-3_NI-0) was 31 μg N2O—N Bottle^1 and the “N2O—N cumulative” value (nitrification [3]; 12 days after appl., listed as UI-1_NI-0) was 75 μg N2O—N Bottle^1. The “N2O—N cumulative” value (nitrification [3]; 12 days after appl., listed as UI-2_NI-0) was 67 μg N2O—N Bottle^1, the “N2O—N cumulative” value (nitrification [3]; 12 days after appl., listed as UI-3_NI-0) was 52 μg N2O—N Bottle^1 and the “N2O—N cumulative” value (nitrification [3]; 14 days after appl., listed as UI-1_NI-0) was 122 μg N2O—N Bottle^1. For the same molecule, the “N2O—N cumulative” value (nitrification [3]; 14 days after appl., listed as UI-2_NI-0) was 125 μg N2O—N Bottle^1, the “N2O—N cumulative” value (nitrification [3]; 14 days after appl., listed as UI-3_NI-0) was 90 μg N2O—N Bottle^1 and the “N2O—N cumulative” value (nitrification [3]; 17 days after appl., listed as UI-1_NI-0) was 144 μg N2O—N Bottle^1. The “N2O—N cumulative” value (nitrification [3]; 17 days after appl., listed as UI-2_NI-0) was 145 μg N2O—N Bottle^1, the “N2O—N cumulative” value (nitrification [3]; 17 days after appl., listed as UI-3_NI-0) was 99 μg N2O—N Bottle^1 and the “N2O—N cumulative” value (nitrification [3]; 18 days after appl., listed as UI-1_NI-0) was 179 μg N2O—N Bottle^1. The “N2O—N cumulative” value (nitrification [3]; 18 days after appl., listed as UI-2_NI-0) was 190 μg N2O—N Bottle^1, the “N2O—N cumulative” value (nitrification [3]; 18 days after appl., listed as UI-3_NI-0) was 125 μg N2O—N Bottle^1 and the “N2O—N cumulative” value (nitrification [3]; 20 days after appl., listed as UI-1_NI-0) was 203 μg N2O—N Bottle^1. The “N2O—N cumulative” value (nitrification [3]; 20 days after appl., listed as UI-2_NI-0) was 215 μg N2O—N Bottle^1, the “N2O—N cumulative” value (nitrification [3]; 20 days after appl., listed as UI-3_NI-0) was 141 μg N2O—N Bottle^1 and the “N2O—N cumulative” value (nitrification [3]; 22 days after appl., listed as UI-1_NI-0) was 238 μg N2O—N Bottle^1. The “N2O—N cumulative” value (nitrification [3]; 22 days after appl., listed as UI-2_NI-0) was 249 μg N2O—N Bottle^1, the “N2O—N cumulative” value (nitrification [3]; 22 days after appl., listed as UI-3_NI-0) was 156 μg N2O—N Bottle^1 and the “N2O—N cumulative” value (nitrification [3]; 24 days after appl., listed as UI-1_NI-0) was 343 μg N2O—N Bottle^1. The “N2O—N cumulative” value (nitrification [3]; 24 days after appl., listed as UI-2_NI-0) was 312 μg N2O—N Bottle^1, the “N2O—N cumulative” value (nitrification [3]; 24 days after appl., listed as UI-3_NI-0) was 174 μg N2O—N Bottle^1 and the “N2O—N cumulative” value (nitrification [3]; 28 days after appl., listed as UI-1_NI-0) was 497 μg N2O—N Bottle^1. The “N2O—N cumulative” value (nitrification [3]; 28 days after appl., listed as UI-2_NI-0) was 397 μg N2O—N Bottle^1, the “N2O—N cumulative” value (nitrification [3]; 28 days after appl., listed as UI-3_NI-0) was 194 μg N2O—N Bottle^1 and the “N2O—N cumulative, % of appl.” value (nitrification [3]; listed as UI-1_NI-0) was 0.65 % of appl. For the same molecule, the “N2O—N cumulative, % of appl.” value (nitrification [3]; listed as UI-2_NI-0) was 0.52 % of appl, the “N2O—N cumulative, % of appl.” value (nitrification [3]; listed as UI-3_NI-0) was 0.25 % of appl and the “Nitrate, % of the urea applied (13 mg N)” value (nitrification [4]; 5 days after application, listed as UI 1 NI 0) was 11%. The “Nitrate, % of the urea applied (13 mg N)” value (nitrification [4]; 5 days after application, listed as UI ⅓ NI 0) was 10%, the “Nitrate, % of the urea applied (13 mg N)” value (nitrification [4]; 5 days after application, listed as UI ⅔ NI 0) was 11% and the “Nitrate, % of the urea applied (13 mg N)” value (nitrification [4]; 28 days after application, listed as UI 1 NI 0) was 52%. The “Nitrate, % of the urea applied (13 mg N)” value (nitrification [4]; 28 days after application, listed as UI ⅓ NI 0) was 58%, the “Nitrate, % of the urea applied (13 mg N)” value (nitrification [4]; 28 days after application, listed as UI ⅔ NI 0) was 64% and the “inhibition of the hydrolysis of urea” value (urease [5]) was “sufficiently inhibits the hydrolysis of urea”.
